Experimental data taken from patent US7618990B2, “Oxazolidone derivatives as PR modulators” (Wyeth, priority 2006, dated 2009).

How the values were obtained:
[1] = molecular target: T1, progesterone receptor (PR) (Homo sapiens, UniProt P06401); experiment: Progesterone receptor whole cell competition binding assay using T47D cells; details: intact T47D cells, 3 nM 3H-progesterone, 3 h at 37° C.
T1 construct: in live, intact (whole) cells using the human breast carcinoma T47D cell line; endogenous in cells; host or cells: T47D human breast carcinoma cells
T1 sequence (P06401 1-933): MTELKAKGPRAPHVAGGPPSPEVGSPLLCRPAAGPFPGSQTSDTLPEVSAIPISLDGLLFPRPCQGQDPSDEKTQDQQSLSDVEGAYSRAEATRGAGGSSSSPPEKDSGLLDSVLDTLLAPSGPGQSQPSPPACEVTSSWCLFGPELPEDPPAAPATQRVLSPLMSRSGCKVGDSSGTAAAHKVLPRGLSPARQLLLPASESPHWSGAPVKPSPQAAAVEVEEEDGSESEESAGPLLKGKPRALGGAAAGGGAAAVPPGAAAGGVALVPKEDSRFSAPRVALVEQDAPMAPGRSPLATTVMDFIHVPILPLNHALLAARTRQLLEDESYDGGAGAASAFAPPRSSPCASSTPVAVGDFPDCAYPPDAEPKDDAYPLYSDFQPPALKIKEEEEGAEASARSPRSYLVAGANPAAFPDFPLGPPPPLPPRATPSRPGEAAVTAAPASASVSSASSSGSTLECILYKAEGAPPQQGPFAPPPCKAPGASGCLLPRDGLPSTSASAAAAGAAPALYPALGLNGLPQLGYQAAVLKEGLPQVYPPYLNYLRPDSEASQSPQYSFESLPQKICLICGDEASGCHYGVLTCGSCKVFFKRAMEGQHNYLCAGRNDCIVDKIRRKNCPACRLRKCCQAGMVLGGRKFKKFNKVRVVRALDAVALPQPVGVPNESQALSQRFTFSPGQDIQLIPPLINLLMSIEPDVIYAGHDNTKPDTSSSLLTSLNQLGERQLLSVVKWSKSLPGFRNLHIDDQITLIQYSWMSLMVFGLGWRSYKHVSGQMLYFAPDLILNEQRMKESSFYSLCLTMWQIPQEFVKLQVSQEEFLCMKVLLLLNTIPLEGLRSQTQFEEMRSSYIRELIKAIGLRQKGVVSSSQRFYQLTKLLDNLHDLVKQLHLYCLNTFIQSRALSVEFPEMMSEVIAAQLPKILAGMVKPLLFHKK
Description: (2) Progesterone Receptor Whole Cell Competition Binding Assay Using T47D Cells
PURPOSE: To evaluate the progesterone receptor (PR) binding activity of progestins or antiprogestins in live, intact (whole) cells using the human breast carcinoma T47D cell line and ^3H-progesterone as the labeled ligand.
Culture Medium: • 5% RC: phenol red free DMEM:F12 (1:1) (GIBCO, BRL) supplemented with 5% (v/v) charcoal stripped fetal bovine serum (not heat-inactivated), 100 U/mL penicillin, 100 μg/mL streptomycin, and 2 mM the GlutaMax™ reagent (GIBCO, BRL). • 10% RC: Same as above supplemented with 10% (v/v) FBS. • ^3H-Progesterone: Perkin Elmer Life Science, cat# NET-381 (typically around 102 Ci/mmol)
T47D cells were maintained in 10% RC media at 37° C. in a 5% CO2/humidified atmosphere and were split twice weekly for proper response. Cells were plated in 10% RC the day before binding assay at 50,000 cells per well in the white, clear bottom plates purchased through VWR or Perkin Elmer.
Cells plated the day prior to the assay in white clear bottom plates were used. A master compound plate was set up containing control and test compounds at 20× final desired concentration for the competition binding. A typical dose range of 20× concentrations were (in nM); 200,000; 20,000; 6000; 2000; 600; 200; 20; and 2. Final concentrations were (in nM); 10,000; 1000; 300; 100; 30; 10; 1; 0.1. Control compounds were typically run 10-fold lower than this and include a 0, or vehicle, control well. A stock of 60 nM ^3H-progesterone (20×) were also prepared at a volume needed of 10 μL per well.
Media on cells were replaced with 180 μL of 5% RC. Ten microliters (10 μL) of 60 nM ^3H-progesterone (for final concentration of 3 nM) was added immediately, followed by 10 μL of 20× test or control compounds. Compounds were incubated for 3 h at 37° C. (A time course study found no difference between 2 and 4 h incubation.)
Following incubation, media was carefully removed and cells were washed 3× with 200 μL 5% RC each wash. Fifty microliters of liquid scintillation cocktail was added and the plates were shaken vigorously for a minimum of 15 min. Plates were read on the Wallac Microbeta® 1450 plate reader.
Square root-transformed data were used for analysis of variance and calculation of IC50. SAS software (SAS Institute, Inc.) was used for all the statistical analysis.
Progesterone was used as a reference progestin and RU486 as a reference antiprogestin.

[2] = tested on: alkaline phosphatase activity in T47D cells; experiment: Effects of progestins and antiprogestins on alkaline phosphatase activity in T47D cells (antagonist mode); type: cell-based; details: Homo sapiens, in the presence of 1 nM progesterone, 24 h, read-out: T47D Alkaline Phosphatase Activity IC50 (nM) or % inhibition

| Ki [1] | IC50 [2] | melting point | SMILES |
| --- | --- | --- | --- |
| 529 nM | 95.3 nM | 138 to 139 °C | O=C1OCC2(CCCC2)N1c1nc(-c2ccc(Br)cc2)cs1 [Example 34, 1-[4-(4-Bromophenyl)-1,3-thiazol-2-yl]-3-oxa-1-azaspiro[4.4]nonan-2-one] |
| 234 nM | 291 nM | 154 to 156 °C | O=C1OCC(C(F)(F)F)N1c1nc(-c2ccc(Br)cc2)cs1 (stereo not drawn) [Example 64, 3-[4-(4-Bromophenyl)-1,3-thiazol-2-yl]-4-(trifluoromethyl)-1,3-oxazolidin-2-one] |
| 2080 nM | 1070 nM | 230 to 233 °C | O=C1NCCN1c1nc(-c2ccc(Br)cc2)cs1 [Example 75, 1-[4-(4-Bromophenyl)-1,3-thiazol-2-yl]imidazolidin-2-one] |
| 62.8 nM | 15.8 nM | 205 to 207 °C | C[C@H]1COC(=O)N1c1nc(-c2ccc(C#N)cc2)cs1 [Example 4, 4-{2-[(4S)-4-Methyl-2-oxo-1,3-oxazolidin-3-yl]-1,3-thiazol-4-yl}benzonitrile] |
| 42.6 nM | 16.1 nM | 215 to 216 °C | CC1COC(=O)N1c1nc(-c2ccc(C#N)cc2)cs1 (stereo not drawn) [Example 51, 4-[2-(4-Methyl-2-oxo-1,3-oxazolidin-3-yl)-1,3-thiazol-4-yl]benzonitrile] |
| 60.3 nM | 43.2 nM | 208 to 209 °C | N#Cc1ccc(-c2csc(N3C(=O)OC[C@H]3C(F)(F)F)n2)cc1 [Example 65, 4-{2-[(4S)-2-Oxo-4-(trifluoromethyl)-1,3-oxazolidin-3-yl]-1,3-thiazol-4-yl}benzonitrile] |
| 700 nM | 117 nM | 168 to 170 °C | CCC1CN(c2nc(-c3ccc(C#N)cc3)cs2)C(=O)O1 (stereo not drawn) [Example 42, 4-[2-(5-Ethyl-2-oxo-1,3-oxazolidin-3-yl)-1,3-thiazol-4-yl]benzonitrile] |
| 87.6 nM | 22.1 nM | 197 to 199 °C | C[C@@H]1COC(=O)N1c1nc(-c2ccc(Br)cc2)cs1 [Example 1, (4R)-3-[4-(4-Bromophenyl)-1,3-thiazol-2-yl]-4-methyl-1,3-oxazolidin-2-one] |
| 108 nM | 75.6 nM | 174 to 176 °C | CC(C)C1COC(=O)N1c1nc(-c2ccc(Br)cc2)cs1 (stereo not drawn) [Example 38, 3-[4-(4-Bromophenyl)-1,3-thiazol-2-yl]-4-isopropyl-1,3-oxazolidin-2-one] |
| 52.6 nM | 14.6 nM | 173 to 175 °C | CC[C@H]1COC(=O)N1c1nc(-c2ccc(C#N)cc2)cs1 [Example 8, 4-{2-[(4S)-4-Ethyl-2-oxo-1,3-oxazolidin-3-yl]-1,3-thiazol-4-yl}benzonitrile] |
| 23.3 nM | 12.8 nM | 153 to 157 °C | CC[C@@H]1COC(=O)N1c1nc(-c2ccc(C#N)cc2)cs1 [Example 10, 4-{2-[(4R)-4-Ethyl-2-oxo-1,3-oxazolidin-3-yl]-1,3-thiazol-4-yl}benzonitrile] |
| 41.2 nM | 28.1 nM | 132 to 135 °C | CCC[C@H]1COC(=O)N1c1nc(-c2ccc(C#N)cc2)cs1 [Example 23, 4-{2-[(4S)-2-oxo-4-propyl-1,3-oxazolidin-3-yl]-1,3-thiazol-4-yl}benzonitrile] |
| 31.5 nM | 21.4 nM | 148 to 150 °C | O=C1OC[C@@H](CF)N1c1nc(-c2ccc(Br)cc2)cs1 [Example 73, (4S)-3-[4-(4-Bromophenyl)-1,3-thiazol-2-yl]-4-(fluoromethyl)-1,3-oxazolidin-2-one] |
| 284 nM | 48.3 nM | 214 to 216 °C | CC1CN(c2nc(-c3ccc(C#N)cc3)cs2)C(=O)O1 (stereo not drawn) [Example 41, 4-[2-(5-Methyl-2-oxo-1,3-oxazolidin-3-yl)-1,3-thiazol-4-yl]benzonitrile] |
| 16.1 nM | 4 nM | 177 to 178 °C | CC1(C)COC(=O)N1c1nc(-c2ccc(C#N)cc2)c(F)s1 [Example 58, 4-[2-(4,4-dimethyl-2-oxo-1,3-oxazolidin-3-yl)-5-fluoro-1,3-thiazol-4-yl]benzonitrile] |
| 713 nM | 204 nM | 218 to 220 °C | O=C1OC[C@@H](c2ccccc2)N1c1nc(-c2ccc(Br)cc2)cs1 [Example 35, (4R)-3-[4-(4-Bromophenyl)-1,3-thiazol-2-yl]-4-phenyl-1,3-oxazolidin-2-one] |
| 38.2 nM | 6.4 nM | 165 to 167 °C | CC1(C)COC(=O)N1c1nc(-c2ccc(Br)cc2)cs1 [Example 5, 3-[4-(4-Bromophenyl)-1,3-thiazol-2-yl]-4,4-dimethyl-1,3-oxazolidin-2-one] |
| 566 nM | 359 nM | 144 to 146 °C | CC(C)C[C@H]1COC(=O)N1c1nc(-c2ccc(Br)cc2)cs1 [Example 37, (4S)-3-[4-(4-Bromophenyl)-1,3-thiazol-2-yl]-4-isobutyl-1,3-oxazolidin-2-one] |
| 36.6 nM | 17.7 nM | 189 to 190 °C | CC1COC(=O)N1c1nc(-c2ccc(Br)cc2)cs1 (stereo not drawn) [Example 50, 3-[4-(4-Bromophenyl)-1,3-thiazol-2-yl]-4-methyl-1,3-oxazolidin-2-one] |
| 62.1 nM | 32.9 nM | 134 to 135 °C | CC[C@@H]1COC(=O)N1c1nc(-c2ccc(Br)cc2)cs1 [Example 9, (4R)-3-[4-(4-Bromophenyl)-1,3-thiazol-2-yl]-4-ethyl-1,3-oxazolidin-2-one] |
| 68 nM | 39 nM | 148.5 °C | CCC1COC(=O)N1c1nc(-c2ccc(Br)cc2)cs1 (stereo not drawn) [Example 49, 3-[4-(4-Bromophenyl)-1,3-thiazol-2-yl]-4-ethyl-1,3-oxazolidin-2-one] |
| 42 nM | 9.9 nM | 132 to 134 °C | CCCC1COC(=O)N1c1nc(-c2ccc(C#N)cc2)cs1 (stereo not drawn) [Example 40, 4-[2-(2-Oxo-4-propyl-1,3-oxazolidin-3-yl)-1,3-thiazol-4-yl]benzonitrile] |
